The cell lines below were run with NC(=O)c1ccc(N(C(N)=O)c2c(F)cccc2F)nc1-c1ccc(F)cc1F [VX-702] + CC(=O)c1c(C)c2cnc(Nc3ccc(N4CCNCC4)cn3)nc2n(C2CCCC2)c1=O [Palbociclib] (partner 0.5 µM) (assay: relative viability (nuclei count vs DMSO), 5 days (fraction); higher = more cells survive). Conditions: first compound 2 µM.
In short: (§1)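 Lung cancer cell lines, seeded in 1536-well plates, were treated the following day by pin tool with a single drug or with five library-drug doses (not always all listed) in √10 steps on top of a fixed anchor-drug dose. Cells were fixed and nuclei stained in one step after 5 days, and nuclei were counted. Relative viability is the nuclei count for treated wells divided by that for vehicle wells, reported as medians of duplicate plates.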

Cell Line | relative viability
NCI-H650 | 0.348
LCLC-103H | 0.434
HCC-827 | 0.316
COR-L 105 | 0.38
NCI-H2126 | 0.35
NCI-H647 | 0.495
LOU-NH91 | 0.536
HCC-78 | 0.487
HCC-44 | 0.98
NCI-H1651 | 0.56
NCI-H1755 | 0.422
HOP-62 | 0.551
PC-14 | 0.732
NCI-H1650 | 0.297
ChaGo-K-1 | 0.946
A-427 | 0.526
NCI-H1355 | 0.404
NCI-H1648 | 0.319
NCI-H1792 | 0.546
HCC-15 | 0.491
LU99A | 0.34

Cell Line | relative viability
EKVX | 0.301
COR-L23 | 0.341
NCI-H1437 | 0.318
RERF-LC-KJ | 1.19
NCI-H1734 | 0.308
BEN | 0.514
NCI-H460 | 0.118
H3255 | 0.315
SK-LU-1 | 0.395
NCI-H1793 | 0.269
NCI-H23 | 0.559
SW 1573 | 0.318
NCI-H838 | 0.227
NCI-H2342 | 0.539
EPLC-272H | 0.311
NCI-H3122 | 0.215
NCI-H1915 | 0.546
NCI-H727 | 0.664
NCI-H1975 | 0.624
LK-2 | 0.614
HCC-366 | 0.333

Cell Line | relative viability
NCI-H2087 | 0.225
LCLC-97TM1 | 0.3
NCI-H661 | 0.408
NCI-H2405 | 0.493
NCI-H1993 | 0.745
PC-3 [JPC-3] | 0.553
NCI-H2009 | 0.246
NCI-H2347 | 0.476
NCI-H520 | 0.231
LXF-289 | 0.616
NCI-H358 | 0.142
LC-2-ad | 0.478
201T | 0.336
NCI-H1666 | 0.526
NCI-H2023 | 0.436
NCI-H322M | 0.449
HARA | 0.254
NCI-H1395 | 0.623
SK-MES-1 | 0.314

Each cell line was assayed with NC(=O)c1ccc(N(C(N)=O)c2c(F)cccc2F)nc1-c1ccc(F)cc1F [VX-702] + O=C(c1cc(Cc2n[nH]c(=O)c3ccccc23)ccc1F)N1CCN(C(=O)C2CC2)CC1 [Olaparib] (partner 8 µM) in the same assay as above. Conditions: first compound 0.02 µM.
In short: as §1

Cell Line | relative viability
ABC-1 | 0.443
CAL-12T | 0.798
NCI-H1944 | 0.413
NCI-H2085 | 0.818
IA-LM | 0.833
NCI-H2228 | 0.866
NCI-H441 | 0.567
NCI-H522 | 0.754
EMC-BAC-2 | 0.526
NCI-H2170 | 0.611
NCI-H1703 | 0.415
UMC-11 | 0.346
NCI-H650 | 0.435

Source: the supplement of paper PMC10307832
